In general, IC50 refers to the concentration needed to halve the response being measured.

The test addresses T1, Human MTHFD2 (Homo sapiens, UniProt P13995).
T1 construct: residues 36-350 in Uniport ID P13995; His6 (N); made in house; host or cells: E. coli
T1 sequence (P13995 36-350): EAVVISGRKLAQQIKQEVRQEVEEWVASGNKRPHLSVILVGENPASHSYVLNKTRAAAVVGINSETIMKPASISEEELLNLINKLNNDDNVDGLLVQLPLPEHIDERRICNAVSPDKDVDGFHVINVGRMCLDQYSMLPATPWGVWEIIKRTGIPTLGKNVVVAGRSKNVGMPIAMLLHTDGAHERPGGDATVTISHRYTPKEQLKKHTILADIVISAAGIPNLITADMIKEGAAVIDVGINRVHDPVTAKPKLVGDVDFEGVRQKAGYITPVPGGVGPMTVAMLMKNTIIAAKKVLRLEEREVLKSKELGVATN
Briefly: MTHFD2 Activity Assay (dehydrogenase activity, diaphorase/resazurin coupled fluorescence). The test is classed as biochemical. The conditions noted are these: inhibitory activity (IC50 and/or binding constant); 0.2 nM MTHFD2, 11 concentrations. The method in brief:
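His6-tagged MTHFD2 (res. 36-350), E. coli-expressed, at 0.2 nM preincubated with compound 15 min in Hepes pH 8.0/MgCl2/KH2PO4 buffer; 70 μM CH2-THF, 1 mM NAD+ added with resazurin/diaphorase, 30 min, EDTA stop. Resorufin fluorescence (ex 525/em 598); IC50 from 11-point 4-parameter fit.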
For orientation: Alamar Blue is a resazurin reagent that responds to reducing activity.
As for `Cc1ccc(Nc2nc3c(c(=O)n(Cc4cc5c(Cl)cccc5[nH]4)c(=O)n3C)n2C)nc1CCC(=O)O` [Example 377, 3-(6-(1-((4-chloro-1H-indol-2-yl)methyl)-3,7-dimethyl-2,6-dioxo-2,3,6,7-tetrahydro-1H-purin-8-ylamino)-3-methylpyridin-2-yl)propanoic acid], the IC50 fell in the range of 10 to 1000 nM.

As to `Cn1c(Nc2ccnc(CCC(N)=O)n2)nc2c1c(=O)n(Cc1cc3c(Cl)cccc3[nH]1)c(=O)n2C` [Example 378, 3-(4-(1-((4-chloro-1H-indol-2-yl)methyl)-3,7-dimethyl-2,6-dioxo-2,3,6,7-tetrahydro-1H-purin-8-ylamino)pyrimidin-2-yl)propanamide], the IC50 lay within 10 to 1000 nM.

`COc1ccc(Nc2nc3c(c(=O)n(Cc4cc5c(Cl)cccc5[nH]4)c(=O)n3C)n2C)cn1` [Example 380, 1-((4-chloro-1H-indol-2-yl)methyl)-8-(6-methoxypyridin-3-ylamino)-3,7-dimethyl-1H-purine-2,6(3H,7H)-dione] registered an IC50 of 10 to 1000 nM.

In the case of `Cn1c(Nc2ccc(Cl)nc2)nc2c1c(=O)n(Cc1cc3c(Cl)cccc3[nH]1)c(=O)n2C` [Example 381, 1-((4-chloro-1H-indol-2-yl)methyl)-8-(6-chloropyridin-3-ylamino)-3,7-dimethyl-1H-purine-2,6(3H,7H)-dione], the IC50 was 10 to 1000 nM.

`Cn1c(Nc2ccc(C(F)(F)F)nc2)nc2c1c(=O)n(Cc1cc3c(Cl)cccc3[nH]1)c(=O)n2C` [Example 382, 1-((4-chloro-1H-indol-2-yl)methyl)-3,7-dimethyl-8-(6-(trifluoromethyl)pyridin-3-ylamino)-1H-purine-2,6(3H,7H)-dione] displayed an IC50 of 10 to 1000 nM.

`Cc1ccc(Nc2nc3c(c(=O)n(Cc4cc5c(Cl)cccc5[nH]4)c(=O)n3C)n2C)cn1` [Example 383, 1-((4-chloro-1H-indol-2-yl)methyl)-3,7-dimethyl-8-(6-methylpyridin-3-ylamino)-1H-purine-2,6(3H,7H)-dione] had an IC50 of 10 to 1000 nM.

As for `Cn1c(Nc2ccc(F)nc2)nc2c1c(=O)n(Cc1cc3c(Cl)cccc3[nH]1)c(=O)n2C` [Example 384, 1-((4-chloro-1H-indol-2-yl)methyl)-8-(6-fluoropyridin-3-ylamino)-3,7-dimethyl-1H-purine-2,6(3H,7H)-dione], the IC50 lay in the range of 10 to 1000 nM.

Regarding `Cn1c(CCN)nc2c1c(=O)n(Cc1cc3c(Cl)cccc3[nH]1)c(=O)n2C` [Example 386, 8-(2-aminoethyl)-1-((4-chloro-1H-indol-2-yl)methyl)-3,7-dimethyl-1H-purine-2,6(3H,7H)-dione], the IC50 lay in the range of 10 to 1000 nM.

Take `CCc1cccc2[nH]c(Cn3c(=O)c4c(nc(Nc5ccncc5)n4C)n(C)c3=O)cc12` [Example 387, 1-((4-ethyl-1H-indol-2-yl)methyl)-3,7-dimethyl-8-(pyridin-4-ylamino)-1H-purine-2,6(3H,7H)-dione]: the IC50 lay within 10 to 1000 nM.

For the compound `Cn1c(C(O)c2ccccc2)nc2c1c(=O)n(Cc1cc3c(Cl)cccc3[nH]1)c(=O)n2C` (centres unmarked) [Example 388, 1-((4-chloro-1H-indol-2-yl)methyl)-8-(hydroxy(phenyl)methyl)-3,7-dimethyl-1H-purine-2,6(3H,7H)-dione], the IC50 was in the range of 10 to 1000 nM.

For `CC(N)c1nc2c(c(=O)n(Cc3cc4c(Cl)cccc4[nH]3)c(=O)n2C)n1C` (centres unmarked) [Example 389, 8-(1-aminoethyl)-1-[(4-chloro-1H-indol-2-yl)methyl]-3,7-dimethyl-purine-2,6-dione], the IC50 fell in the range of 10 to 1000 nM.

Regarding `CC(=O)NS(=O)(=O)c1ccc(Nc2nc3c(c(=O)n(Cc4cc5c(Cl)cccc5[nH]4)c(=O)n3C)n2C)cc1` [Example 390, N-((4-((1-((4-chloro-1H-indol-2-yl)methyl)-3,7-dimethyl-2,6-dioxo-2,3,6,7-tetrahydro-1H-purin-8-yl)amino)phenyl)sulfonyl)acetamide], the IC50 lay within 10 to 1000 nM.

Consider `Cn1c(C2CCCNC2)nc2c1c(=O)n(Cc1cc3c(Cl)cccc3[nH]1)c(=O)n2C` (centres unmarked) [Example 391, 1-[(4-chloro-1H-indol-2-yl)methyl]-3,7-dimethyl-8-(3-piperidyl)purine-2,6-dione], for which the IC50 lay within 10 to 1000 nM.

In the case of `Cn1c(Nc2ccc(N3CCNCC3)cn2)nc2c1c(=O)n(Cc1cc3c(Cl)cccc3[nH]1)c(=O)n2C` [Example 392, 1-[(4-chloro-1H-indol-2-yl)methyl]-3,7-dimethyl-8-[(5-piperazin-1-yl-2-pyridyl)amino]purine-2,6-dione], the IC50 lay in the range of 10 to 1000 nM.

Regarding `Cn1c(Nc2ccncc2)nc2c1c(=O)n(Cc1cc3ccncc3[nH]1)c(=O)n2C` [Example 393, 1-((1H-pyrrolo[2,3-c]pyridin-2-yl)methyl)-3,7-dimethyl-8-(pyridin-4-ylamino)-1H-purine-2,6(3H,7H)-dione], the IC50 was in the range of 5000 to 10000 nM.

Compound `Cn1c(=O)c2c(nc(CCN)n2C)n(C)c1=O` [Example 394, 8-(2-aminoethyl)-1,3,7-trimethyl-1H-purine-2,6(3H,7H)-dione] showed an IC50 of 5000 to 10000 nM.

`Cn1c(N[C@@H]2CCC[C@@H]2N)nc2c1c(=O)n(Cc1cc3c(Cl)cccc3[nH]1)c(=O)n2C` [Example 395, 8-((1R,2S)-2-aminocyclopentylamino)-1-((4-chloro-1H-indol-2-yl)methyl)-3,7-dimethyl-1H-purine-2,6(3H,7H)-dione] came in with an IC50 of 1000 to 5000 nM.

`Cn1c(Nc2ccc(Cl)c(CCC(=O)O)n2)nc2c1c(=O)n(Cc1cc3c(Cl)cccc3[nH]1)c(=O)n2C` [Example 396, 3-(3-chloro-6-(1-((4-chloro-1H-indol-2-yl)methyl)-3,7-dimethyl-2,6-dioxo-2,3,6,7-tetrahydro-1H-purin-8-ylamino)pyridin-2-yl)propanoic acid]: the IC50 is 10 to 1000 nM.

As to `Cn1c(Nc2ccc(-c3nnn[nH]3)cc2)nc2c1c(=O)n(Cc1cc3c(Cl)cccc3[nH]1)c(=O)n2C` [Example 397, 8-((4-(1H-tetrazol-5-yl)phenyl)amino)-1-((4-chloro-1H-indol-2-yl)methyl)-3,7-dimethyl-1H-purine-2,6(3H,7H)-dione], the IC50 is 10 to 1000 nM.

In turn, `Cn1c(Nc2cccc(-c3ccccc3)n2)nc2c1c(=O)n(Cc1cc3c(Cl)cccc3[nH]1)c(=O)n2C` [Example 399, 1-[(4-chloro-1H-indol-2-yl)methyl]-3,7-dimethyl-8-[(6-phenyl-2-pyridyl)amino]purine-2,6-dione] yielded an IC50 of 1000 to 5000 nM.

Consider `Cn1c(Nc2ccc(-c3ccccc3)cn2)nc2c1c(=O)n(Cc1cc3c(Cl)cccc3[nH]1)c(=O)n2C` [Example 400, 1-[(4-chloro-1H-indol-2-yl)methyl]-3,7-dimethyl-8-[(5-phenyl-2-pyridyl)amino]purine-2,6-dione], for which the IC50 lay within 1000 to 5000 nM.

The compound `Cn1c(Nc2ccncc2)nc2c1c(=O)n(Cc1cc3c(C4CC4)cccc3[nH]1)c(=O)n2C` [Example 401, 1-((4-cyclopropyl-1H-indol-2-yl)methyl)-3,7-dimethyl-8-(pyridin-4-ylamino)-1H-purine-2,6(3H,7H)-dione] had a 50% inhibitory concentration (IC50) of 10 to 1000 nM.

Compound `Cn1c(Nc2ccncc2)nc2c1c(=O)n(Cc1ccc3c(Cl)cccc3c1)c(=O)n2C` [Example 402, 1-((5-chloronaphthalen-2-yl)methyl)-3,7-dimethyl-8-(pyridin-4-ylamino)-1H-purine-2,6(3H,7H)-dione] returned an IC50 of 10 to 1000 nM.

(Values after patent US12187728B2 (Raze Therapeutics, Inc., priority 2015, dated 2025).)
